# Experimental data taken from publication PMC8478282, “Recombinant Peptide Mimetic NanoLuc Tracer for Sensitive Immunodetection of Mycophenolic Acid” (Analytical Chemistry, 2021).
# Entries after “also recorded” stand apart in the source; their conditions may differ. Bridges are numbered along the chain shown (N, C = ends). Where no end group is shown, it is not given here.
# Assays:
# [1] = human, in vivo
# Procedure: Volunteers donated whole blood samples with permission from the Ethics Committee from Hospital Clínico Universitario de Valladolid, Spain (no. PI 21-2245). The blood samples were kept at 20 °C during transport and storage. The samples were treated following the procedure described previously (see the Supporting Information for details).[11]
# 100µL of a 0.1 µg mL−1 bi o -A2 solution were added to the neutravidin-functionalized beads
# solution as described before. After a 30-min incubation and a similar washing step, 100 µL of a
# solution containing 0.5µg mL −1 of anti-MPA and different concentrations of free MPA,
# previously incubated during 10 min, were added to the beads and incubated for another 30 m in.
# After washing, an anti-IgG-HRP antibody was added, incubated 30 min and washed thereafter.
# Finally, 80 µL of Amplex UltraRed was added and the fluorescence was monitored as described
# The optimized separation of the three metabolites was performed in gradient elution mode,
# quantified using an internal standard (MPA-LuciferYellow) calibration model using a nine-point
# calibration curve, with a concentration range (0.5–80 ng mL −1 for MPA; 50–15000ng mL−1 f or
# MPAG and 12– 250ng mL−1 for Acyl-MPAG) for the three metabolites. […]
# analyzed. Free MPA was analyzed in plasma samples after a 1:8 dilution in SuperBlock + 0.05% […]
# [2] = tested on: biotinylated anti-MPA Fab antibody; assay: Bioluminescent bead-based competitive immunoassay with A2-NanoLuc / NanoLuc-A2 tracer; assay type: binding; settings: for Cross-reactivity: IC50 for MPA divided by the IC50 of the interferent
# Procedure: (§1) To detect MPA with the A2-NanoLuc fusion protein, a bead-based assay was carried out on a black microtiter well plate by immobilizing the biotinylated anti-MPA onto streptavidin-coated magnetic beads (Figure 1). Briefly, the wells were first blocked with assay buffer (SuperBlock with 0.05% Tween-20) for 1 h. Then, 60 μL of 5 μg mL^–1 biotinylated anti-MPA in assay buffer and 20 μL of streptavidin beads (1:50 dilution from the stock) were added to the wells and incubated for 30 min at RT. After washing three times with PBST, 60 μL of a solution containing different concentrations of MPA and 77 μg mL^–1 of the A2-NanoLuc in assay buffer was added to the wells and incubated 30 min at RT. Once the beads were washed, 60 μL of NanoGLO substrate in PBS were added and bioluminescence was measured after a 2 min incubation at 470 nm with a bandwidth of 80 nm using a CLARIOstar microplate reader.
# The matrix effect was tested in the presence of different dilutions of the ultrafiltered serum samples [1/2, 1/6, and 1/8, (v/v)], treated following a previously described procedure,[11] in PBST. […] Therefore, such dilution was used for further experiments.
# anti-MPA [3] = assay: Bead-based competitive immunoassay with synthetic biotinylated peptide A2; assay type: binding
# anti-MPA Fab antibody = assay: SPR (Biacore T200), 1:1 Langmuir kinetics, binding to immobilized anti-MPA Fab; settings: for Dissociation rate constant kd: Biacore T200, CM5 chip, anti-MPA (14) Fab immobilized, anti-OTA Fab reference, 1x PBS-P, +25 °C, dissociation phase 5 min, averages (± SE), seven concentrations; for Binding to anti-MPA Fab surface: SPR, concentration-dependent responses
# From the text: To compare the binding properties of the biotinylated cyclic peptide and MPA toward the anti-MPA antibody, label-free SPR technology was applied. In the binding experiments, previously identified, produced, and purified Fab antibodies recognizing either MPA or ochratoxin A were immobilized onto sensor chip surfaces.[22] The same experimental conditions were used to study the binding properties of cyclic peptide (A2) and MPA. The results are presented in Figures S3 and S4 and summarized in Table S1 (Supporting Information).
# (§2) solution as described before.
# (§3) (OTA) Fab fragment on reference surface (flow channel 1). As running buffer, 1× PBS-P
# (§4) After dissociation phase of 5 min, regeneration
# followed by stabilization period of 60s. All samples were analyzed in replicates. […]
# anti-MPA [4] = assay: Bead-based competitive phage immunoassay with clone A2; assay type: binding; settings: Amplex UltraRed fluorescence, n = 3
# Procedure: (§5) Briefly, black microtiter plates were blocked with 280 μL of assay buffer for 1 h at RT and subsequently washed three times with PBS. Then, the biotinylated anti-MPA (1.2 μg mL^–1) and neutravidin-coated magnetic beads (125 μg mL^–1) functionalized as described before,[18] were added to the wells in the assay buffer (total volume 260 μL per well), and incubated for 30 min at RT. After washing the beads using a plate washer with a magnetic support, the phage clone (10^11 pfu mL^–1) and increasing concentrations of free MPA were added to the wells (in assay buffer, 60 μL per well) and incubated for 30 min at RT. The beads were washed again to remove the excess, followed by incubation with HRP-conjugated anti-M13 antibody (1:5000 dilution in assay buffer; 80 μL per well) for 30 min at RT. Finally, after washing, 80 μL of Amplex UltraRed solution was added to each well, and the fluorescence was monitored with a CLARIOstar microplate reader (BMG Labtech) (λex = 530 nm and λem = 590 nm).
# [5] = Biosensor analysis of blood samples of patients and healthy controls; assay type: in vivo, human; settings: free MPA
# Procedure: as §1, §2, §3, §4
# followed by stabilization period of 60s. All samples were analyzed in replicates. The result s were
# for MPAG, Acyl-MPAG and MPA respectively. The rt were reproducible between runs. Fig ure
# The three metabolites were
# curves was >0.99 for all compounds tested.
# and centrifuged at 12,045 g for 30 min.
# samples and vortexed for 5 minutes at 1000 rpm. […]
# [6] = serum; cited from earlier work
# From the text: Mycophenolic acid (MPA) is a mycotoxin produced by Penicillium fungi, and it is widely used as an immunosuppressant drug to prevent organ rejection in transplanted patients.[1] Recently, it has also been tested as a chemotherapeutic agent as it inhibits the proliferation of cancer cells.[2] Due to the small therapeutic window that MPA has, it is very important to monitor correctly its levels inside the human body.[3] MPA is mainly found in the serum, but only 1% of the total MPA exists in the free form, which is the one responsible for its pharmacological activity.[3],[4] Therefore, the availa ...
# anti-MPA [7] = assay: Plate-based phage ELISA, direct and competitive; assay type: binding
# Procedure: The assay was carried out at room temperature (RT). The biotinylated anti-MPA (Supporting Information) [5 μg mL^–1 in the assay buffer (SuperBlock supplemented with 0.05% Tween-20); 100 μL per well] was immobilized on streptavidin-coated wells (30 min), followed by three-time washes with PBST. The wells were then blocked with 280 μL of assay buffer for 30 min and washed again three times with PBS. Then, the amplified phage stock (between 10^10 and 10^11 pfu mL^–1; 100 μL per well) was added to the wells in assay buffer and incubated for 1 h with slow shaking. After washing the wells as described above, the HRP-conjugated anti-M13 monoclonal antibody (1:5000 dilution in assay buffer; 100 μL per well) was added to the wells and incubated for 1 h. Finally, the plate was washed three times as described above and 100 μL of ABTS was added to the wells. After 5 min, absorbance at 405 nm was measured in a Varioskan plate reader (Thermo Scientific).
# as §5
# [8] = A2-NanoLuc bead-based bioluminescent assay, n = 3
compound,measurement,setting,value
"COc1c(C)c2c(c(O[C@@H]3O[C@H](C(=O)O)[C@@H](O)[C@H](O)[C@H]3O)c1C/C=C(\C)CCC(=O)O)C(=O)OC2 [MPAG, mycophenolic acid glucuronide]",MPAG level in samples vs biosensor,[1],below the limit of quantification of the biosensor
same,Cross-reactivity,[2]; [8],0.03%
C=CC[C@@H]1/C=C(\C)C[C@H](C)C[C@H](OC)[C@H]2O[C@@](O)(C(=O)C(=O)N3CCCC[C@H]3C(=O)O[C@H](/C(C)=C/[C@@H]3CC[C@@H](O)[C@H](OC)C3)[C@H](C)[C@@H](O)CC1=O)[C@H](C)C[C@@H]2OC [tacrolimus],Cross-reactivity,[2]; [8],lower than 0.03%
"COc1c(C)c2c(c(O)c1C/C=C(\C)CCC(=O)O)C(=O)OC2 [MPA, Mycophenolic acid]",Dynamic range (20–80% inhibition),"anti-MPA [3]; biotinylated A2 peptide (0.1 µg/mL) on neutravidin beads, anti-MPA 0.5 µg/mL, Amplex UltraRed fluorescence, n = 3",2.4–60 ng mL^–1
same,LOD (10% inhibition),"anti-MPA [3]; free MPA, biotinylated A2 peptide (0.1 µg/mL) on neutravidin beads, anti-MPA 0.5 µg/mL pre-incubated 10 min with MPA, 30 min, anti-IgG-HRP, Amplex UltraRed fluorescence, n = 3",0.94 ng mL^–1
same,Dissociation rate constant kd,anti-MPA Fab antibody,0.0741 ± 0.0004 s⁻¹
same,Kd,"anti-MPA Fab antibody; MPA and anti-MPA Fab interaction, in agreement with previous SPR affinity in solution results, read-out: Affinity constant",~40 nM
same,Binding to anti-MPA Fab surface,anti-MPA Fab antibody,showed binding to the anti-MPA Fab antibody surface
same,LOD (10% inhibition),"anti-MPA [4]; free MPA competing with phage clone A2 (10^11 pfu/mL), neutravidin beads with biotinylated anti-MPA, assay buffer, RT, 30 min",0.69 ng mL^–1
same,Dynamic range (20–80% inhibition),"anti-MPA [4]; phage clone A2 (10^11 pfu/mL), neutravidin beads",1.0–4.1 ng mL^–1
same,MPA detected in control samples,[5]; healthy controls H1–H3,no MPA was detected in the control samples
same,MPA concentration levels by patient,[5]; transplanted patients T1–T5,patients T1 and T2 had the highest MPA concentration levels
same,Dynamic range (20–80% inhibition),"[2]; A2-NanoLuc tracer, assay buffer, bioluminescence, n = 3",0.64–14 ng mL^–1
same,Matrix effect on dose response curve,"[2]; PBST vs ultrafiltered serum diluted 1/8 (v/v), p > 0.05, n = 3",No significant differences
same,LOD (10% inhibition),"[2]; free MPA competing with A2-NanoLuc (77 μg/mL) for biotinylated anti-MPA on streptavidin beads, assay buffer (SuperBlock + 0.05% Tween-20), RT, 30 min, bioluminescence 470 nm, n = 3",0.26 ng mL^–1
same,IC50,"[2]; free MPA competing with A2-NanoLuc (77 μg/mL) for biotinylated anti-MPA on streptavidin beads, assay buffer, RT, 30 min, bioluminescence 470 nm, logistic fit, n = 3",2.9 ± 0.5 ng mL^–1
same,Free form of total MPA,[6],1%
cyclosporin,Cross-reactivity,[2]; [8],lower than 0.03%
"COc1c(C)c2c(c(O)c1C/C=C(\C)CCC(=O)O[C@@H]1O[C@H](C(=O)O)[C@@H](O)[C@H](O)[C@H]1O)C(=O)OC2 [acyl-MPAG, acyl-mycophenolic acid glucuronide]",Cross-reactivity,[2]; [8],58%
same,Behavior in the assay compared to MPA,"[2]; cross-reactivity test, A2-NanoLuc bead-based bioluminescent assay",very similar behavior to MPA
A(CEGLYAHWC)GGGSK(Bio)-NH2 (disulfide) [Cyclic peptide (A2)],Competition with free MPA,"anti-MPA [3]; synthetic biotinylated peptide, competitive neutravidin bead-based assay",competition at the nanomolar level
same,Dissociation rate constant kd,anti-MPA Fab antibody,0.583 ± 0.001 s⁻¹
same,Binding to anti-MPA Fab surface,anti-MPA Fab antibody,showed binding to the anti-MPA Fab antibody surface
same,Association / dissociation relative to MPA,anti-MPA Fab antibody; compared to MPA–anti-MPA Fab antibody complex,slower association and faster dissociation
"ACEGLYAHWC (disulfide 2-10 (inferred)) [A2, phage clone displaying […] with a disulfide bond between the two cysteines; MPA mimetic]",Signal in competitive ELISA in the presence of free MPA,"anti-MPA [7]; 100 ng/mL free MPA added with phage clone A2, data not shown",significant decrease in the signal
same,Nonspecific binding,anti-MPA [7]; phage ELISA in the absence of anti-MPA,very low nonspecific binding
same,Phage ELISA binding to anti-MPA,"anti-MPA [7]; phage clone vs immobilized biotinylated anti-MPA, signal-to-background, ABTS, absorbance 405 nm",very high signal-to-background ratio; also recorded: high specificity toward anti-MPA
